# Experimental data: US20260224588A1, “BENZODIAZEPINONE-DERIVED INHIBITORS OF EGFR AND HER2” (The Research Foundation for the State University of New York, priority 2023, published 2026)
# Key:
# Assay in all cases: KINOMEscan
# Assay type in all cases: binding
# Details in all cases: 1 μM of compound 4; read-out: POC
# FGFR3 = target: T1, FGFR3 (Homo sapiens, UniProt P22607)
# T1 construct: purchased Eurofins DiscoverX Corporation
# DYRK2 = DYRK2 (Homo sapiens, UniProt Q92630)
# MAP4K3 = MAP4K3 (Homo sapiens, UniProt Q8IVH8)
# [1] = target: T2, EGFR(L747-S752del + P753S) (Homo sapiens, UniProt P00533, DEL747-752/P753S)
# T2 construct: purchased Eurofins DiscoverX (KINOMEscan service)
# STK36 = target: T3, STK36 (Homo sapiens, UniProt Q9NRP7)
# T3 construct: purchased Eurofins DiscoverX (KINOMEscan service)
# SGK3 = target: T4, SGK3 (Homo sapiens, UniProt Q96BR1)
# T4 construct: purchased Eurofins DiscoverX (KINOMEscan service)
# PIM3 = PIM3 (Homo sapiens, UniProt Q86V86)
# KIT(V559D + T670I) = KIT(V559D + T670I) (Homo sapiens, UniProt P10721, T670I/V559D)
# PFCDPK1(P. falciparum) = target: T5, PFCDPK1(P. falciparum) (Plasmodium falciparum, UniProt P62344)
# T5 construct: purchased Eurofins DiscoverX Corporation (KINOMEscan)
# PRKD2 = PRKD2 (Homo sapiens, UniProt Q9BZL6)
# DRAK2 = DRAK2 (Homo sapiens, UniProt O94768)
# CAMK4 = CAMK4 (Homo sapiens, UniProt Q16566)
# MYLK = MYLK (Homo sapiens, UniProt Q15746)
# SRPK2 = target: T6, SRPK2 (Homo sapiens, UniProt P78362)
# T6 construct: purchased Eurofins DiscoverX (KINOMEscan service)
# CAMKK2 = CAMKK2 (Homo sapiens, UniProt Q96RR4)
# ADCK3 = ADCK3 (Homo sapiens, UniProt Q8NI60)
# [2] = target: T7, RSK3(Kin.Dom.2-C-terminal) (Homo sapiens, UniProt Q15349)
# T7 construct: RSK3(Kin.Dom.2-C-terminal); purchased Eurofins DiscoverX (KINOMEscan service)
# MEK2 = MEK2 (Homo sapiens, UniProt P36507)
# p38-alpha = target: T8, p38-alpha (Homo sapiens, UniProt Q16539)
# T8 construct: purchased Eurofins DiscoverX Corporation (KINOMEscan)
# BIKE = BIKE (Homo sapiens, UniProt Q9NSY1)
# PAK6 = target: T9, PAK6 (Homo sapiens, UniProt Q9NQU5)
# T9 construct: purchased Eurofins DiscoverX Corporation (KINOMEscan)
# [3] = target: T10, RSK1(Kin.Dom.1-N-terminal) (Homo sapiens, UniProt Q15418)
# T10 construct: RSK1(Kin.Dom.1-N-terminal); purchased Eurofins DiscoverX Corporation (KINOMEscan screening service)
# RIOK3 = target: T11, RIOK3 (Homo sapiens, UniProt O14730)
# T11 construct: purchased Eurofins DiscoverX Corporation (KINOMEscan screening service)
# EGFR(G719C) = target: T12, EGFR(G719C) (Homo sapiens, UniProt P00533, G719C)
# T12 construct: purchased Eurofins DiscoverX (KINOMEscan service)
# ABL1-phosphorylated = target: T13, ABL1-phosphorylated (Homo sapiens, UniProt P00519)
# T13 construct: purchased Eurofins DiscoverX Corporation
# MYO3B = MYO3B (Homo sapiens, UniProt Q8WXR4)
# TAK1 = target: T14, TAK1 (Homo sapiens, UniProt O43318)
# T14 construct: purchased Eurofins DiscoverX Corporation
# MKK7 = MKK7 (Homo sapiens, UniProt O14733)
# HCK = target: T15, HCK (Homo sapiens, UniProt P08631)
# T15 construct: purchased Eurofins DiscoverX Corporation
# PRKCQ = PRKCQ (Homo sapiens, UniProt Q04759)
# CAMKK1 = CAMKK1 (Homo sapiens, UniProt Q8N5S9)
# EGFR(E746-A750del) = target: T16, EGFR(E746-A750del) (Homo sapiens, UniProt P00533, DEL746-750)
# T16 construct: purchased Eurofins DiscoverX (KINOMEscan service)
# PRKX = PRKX (Homo sapiens, UniProt P51817)
# [4] = target: T17, ABL1(T315I)-nonphosphorylated (Homo sapiens, UniProt P00519, T315I)
# T17 construct: purchased Eurofins DiscoverX Corporation
# [5] = target: T18, ABL1(H396P)-nonphosphorylated (Homo sapiens, UniProt P00519, H396P)
# T18 construct: purchased Eurofins DiscoverX Corporation
# [6] = target: T19, RSK2(Kin.Dom.2-C-terminal) (Homo sapiens, UniProt P51812)
# T19 construct: RSK2(Kin.Dom.2-C-terminal); purchased Eurofins DiscoverX Corporation (KINOMEscan screening service)
# T19 sequence (P51812 422-679 limits assumed): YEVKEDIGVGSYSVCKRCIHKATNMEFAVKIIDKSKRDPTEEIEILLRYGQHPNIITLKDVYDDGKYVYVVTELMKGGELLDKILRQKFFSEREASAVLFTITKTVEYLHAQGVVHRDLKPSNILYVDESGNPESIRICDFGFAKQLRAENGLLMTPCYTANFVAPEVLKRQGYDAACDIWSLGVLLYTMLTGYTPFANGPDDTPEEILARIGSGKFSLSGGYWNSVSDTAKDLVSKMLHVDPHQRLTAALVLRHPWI
# T16 sequence (P00533 with tags, fused parts or gaps DEL746-750): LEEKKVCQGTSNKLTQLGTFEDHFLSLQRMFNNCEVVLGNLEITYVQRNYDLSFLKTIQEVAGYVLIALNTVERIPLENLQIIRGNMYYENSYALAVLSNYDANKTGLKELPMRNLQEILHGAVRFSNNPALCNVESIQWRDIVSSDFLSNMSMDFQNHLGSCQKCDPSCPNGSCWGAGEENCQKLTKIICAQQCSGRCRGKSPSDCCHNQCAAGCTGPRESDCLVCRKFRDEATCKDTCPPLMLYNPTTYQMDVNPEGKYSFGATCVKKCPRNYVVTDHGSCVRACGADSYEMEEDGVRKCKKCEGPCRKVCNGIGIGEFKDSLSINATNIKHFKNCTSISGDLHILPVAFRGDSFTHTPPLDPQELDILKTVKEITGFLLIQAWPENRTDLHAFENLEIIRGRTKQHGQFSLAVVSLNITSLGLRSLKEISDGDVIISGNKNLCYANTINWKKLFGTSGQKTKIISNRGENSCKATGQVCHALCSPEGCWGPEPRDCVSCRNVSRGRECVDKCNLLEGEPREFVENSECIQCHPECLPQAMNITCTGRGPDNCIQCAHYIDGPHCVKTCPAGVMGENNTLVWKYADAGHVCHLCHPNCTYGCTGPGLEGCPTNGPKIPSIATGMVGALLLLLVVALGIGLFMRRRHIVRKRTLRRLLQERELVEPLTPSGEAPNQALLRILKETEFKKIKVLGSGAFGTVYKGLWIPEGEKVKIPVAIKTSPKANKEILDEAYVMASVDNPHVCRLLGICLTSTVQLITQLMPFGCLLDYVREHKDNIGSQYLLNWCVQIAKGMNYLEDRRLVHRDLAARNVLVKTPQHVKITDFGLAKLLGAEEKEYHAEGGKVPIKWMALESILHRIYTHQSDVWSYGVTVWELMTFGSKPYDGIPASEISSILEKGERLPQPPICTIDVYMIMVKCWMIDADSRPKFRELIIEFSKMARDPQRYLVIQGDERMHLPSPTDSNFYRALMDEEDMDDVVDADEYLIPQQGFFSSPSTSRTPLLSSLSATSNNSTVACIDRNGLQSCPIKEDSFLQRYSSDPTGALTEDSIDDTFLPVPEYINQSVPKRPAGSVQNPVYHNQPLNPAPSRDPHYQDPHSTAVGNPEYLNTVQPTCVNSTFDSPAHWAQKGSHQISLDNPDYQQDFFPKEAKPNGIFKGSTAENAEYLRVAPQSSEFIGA
# T7 sequence (Q15349 415-672 limits assumed): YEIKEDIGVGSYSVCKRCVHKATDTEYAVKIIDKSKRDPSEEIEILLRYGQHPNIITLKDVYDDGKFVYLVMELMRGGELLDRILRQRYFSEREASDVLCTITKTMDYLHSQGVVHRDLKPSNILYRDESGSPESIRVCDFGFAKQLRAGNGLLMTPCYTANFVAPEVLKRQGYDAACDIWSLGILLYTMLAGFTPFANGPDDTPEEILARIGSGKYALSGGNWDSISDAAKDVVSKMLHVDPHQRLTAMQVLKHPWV
# T15 sequence (P08631 whole entry): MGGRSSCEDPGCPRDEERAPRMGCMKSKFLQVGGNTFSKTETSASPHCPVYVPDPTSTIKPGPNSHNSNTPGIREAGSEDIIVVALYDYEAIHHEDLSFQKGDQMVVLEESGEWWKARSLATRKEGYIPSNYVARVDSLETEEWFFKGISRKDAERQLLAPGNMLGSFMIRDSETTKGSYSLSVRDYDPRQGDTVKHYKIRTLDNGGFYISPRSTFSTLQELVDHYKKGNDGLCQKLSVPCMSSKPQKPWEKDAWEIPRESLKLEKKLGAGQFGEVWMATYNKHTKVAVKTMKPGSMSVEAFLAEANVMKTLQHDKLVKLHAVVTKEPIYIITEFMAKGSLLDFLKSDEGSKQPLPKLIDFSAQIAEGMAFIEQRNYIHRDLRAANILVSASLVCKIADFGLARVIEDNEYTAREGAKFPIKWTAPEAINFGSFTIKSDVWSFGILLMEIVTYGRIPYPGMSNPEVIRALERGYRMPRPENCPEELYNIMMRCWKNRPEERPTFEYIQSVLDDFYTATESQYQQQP
# MAP4K3, sequence (Q8IVH8 whole entry): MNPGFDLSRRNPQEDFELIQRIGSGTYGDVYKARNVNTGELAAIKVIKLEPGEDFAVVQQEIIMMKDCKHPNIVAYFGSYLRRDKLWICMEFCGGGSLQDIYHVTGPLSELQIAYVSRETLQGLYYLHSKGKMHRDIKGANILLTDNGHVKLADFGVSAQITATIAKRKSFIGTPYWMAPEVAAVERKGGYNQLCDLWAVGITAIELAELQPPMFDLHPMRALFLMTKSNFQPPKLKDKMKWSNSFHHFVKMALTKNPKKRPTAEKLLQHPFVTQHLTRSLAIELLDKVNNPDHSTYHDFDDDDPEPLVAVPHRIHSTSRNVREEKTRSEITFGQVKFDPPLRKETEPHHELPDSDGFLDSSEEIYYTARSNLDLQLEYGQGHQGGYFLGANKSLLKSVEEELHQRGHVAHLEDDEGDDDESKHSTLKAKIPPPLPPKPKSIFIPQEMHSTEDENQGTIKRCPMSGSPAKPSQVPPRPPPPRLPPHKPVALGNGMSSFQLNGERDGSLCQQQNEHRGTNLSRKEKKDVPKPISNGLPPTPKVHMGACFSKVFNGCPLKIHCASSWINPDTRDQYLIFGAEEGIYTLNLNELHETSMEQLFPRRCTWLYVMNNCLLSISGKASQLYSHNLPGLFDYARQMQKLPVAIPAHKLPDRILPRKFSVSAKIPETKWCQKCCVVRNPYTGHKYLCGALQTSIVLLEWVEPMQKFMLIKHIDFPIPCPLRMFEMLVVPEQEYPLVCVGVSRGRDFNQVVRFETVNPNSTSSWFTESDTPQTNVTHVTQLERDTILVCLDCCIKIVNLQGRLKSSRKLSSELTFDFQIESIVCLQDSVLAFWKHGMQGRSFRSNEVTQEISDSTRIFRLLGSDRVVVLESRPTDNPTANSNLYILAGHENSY
# MYLK, sequence (Q15746 whole entry): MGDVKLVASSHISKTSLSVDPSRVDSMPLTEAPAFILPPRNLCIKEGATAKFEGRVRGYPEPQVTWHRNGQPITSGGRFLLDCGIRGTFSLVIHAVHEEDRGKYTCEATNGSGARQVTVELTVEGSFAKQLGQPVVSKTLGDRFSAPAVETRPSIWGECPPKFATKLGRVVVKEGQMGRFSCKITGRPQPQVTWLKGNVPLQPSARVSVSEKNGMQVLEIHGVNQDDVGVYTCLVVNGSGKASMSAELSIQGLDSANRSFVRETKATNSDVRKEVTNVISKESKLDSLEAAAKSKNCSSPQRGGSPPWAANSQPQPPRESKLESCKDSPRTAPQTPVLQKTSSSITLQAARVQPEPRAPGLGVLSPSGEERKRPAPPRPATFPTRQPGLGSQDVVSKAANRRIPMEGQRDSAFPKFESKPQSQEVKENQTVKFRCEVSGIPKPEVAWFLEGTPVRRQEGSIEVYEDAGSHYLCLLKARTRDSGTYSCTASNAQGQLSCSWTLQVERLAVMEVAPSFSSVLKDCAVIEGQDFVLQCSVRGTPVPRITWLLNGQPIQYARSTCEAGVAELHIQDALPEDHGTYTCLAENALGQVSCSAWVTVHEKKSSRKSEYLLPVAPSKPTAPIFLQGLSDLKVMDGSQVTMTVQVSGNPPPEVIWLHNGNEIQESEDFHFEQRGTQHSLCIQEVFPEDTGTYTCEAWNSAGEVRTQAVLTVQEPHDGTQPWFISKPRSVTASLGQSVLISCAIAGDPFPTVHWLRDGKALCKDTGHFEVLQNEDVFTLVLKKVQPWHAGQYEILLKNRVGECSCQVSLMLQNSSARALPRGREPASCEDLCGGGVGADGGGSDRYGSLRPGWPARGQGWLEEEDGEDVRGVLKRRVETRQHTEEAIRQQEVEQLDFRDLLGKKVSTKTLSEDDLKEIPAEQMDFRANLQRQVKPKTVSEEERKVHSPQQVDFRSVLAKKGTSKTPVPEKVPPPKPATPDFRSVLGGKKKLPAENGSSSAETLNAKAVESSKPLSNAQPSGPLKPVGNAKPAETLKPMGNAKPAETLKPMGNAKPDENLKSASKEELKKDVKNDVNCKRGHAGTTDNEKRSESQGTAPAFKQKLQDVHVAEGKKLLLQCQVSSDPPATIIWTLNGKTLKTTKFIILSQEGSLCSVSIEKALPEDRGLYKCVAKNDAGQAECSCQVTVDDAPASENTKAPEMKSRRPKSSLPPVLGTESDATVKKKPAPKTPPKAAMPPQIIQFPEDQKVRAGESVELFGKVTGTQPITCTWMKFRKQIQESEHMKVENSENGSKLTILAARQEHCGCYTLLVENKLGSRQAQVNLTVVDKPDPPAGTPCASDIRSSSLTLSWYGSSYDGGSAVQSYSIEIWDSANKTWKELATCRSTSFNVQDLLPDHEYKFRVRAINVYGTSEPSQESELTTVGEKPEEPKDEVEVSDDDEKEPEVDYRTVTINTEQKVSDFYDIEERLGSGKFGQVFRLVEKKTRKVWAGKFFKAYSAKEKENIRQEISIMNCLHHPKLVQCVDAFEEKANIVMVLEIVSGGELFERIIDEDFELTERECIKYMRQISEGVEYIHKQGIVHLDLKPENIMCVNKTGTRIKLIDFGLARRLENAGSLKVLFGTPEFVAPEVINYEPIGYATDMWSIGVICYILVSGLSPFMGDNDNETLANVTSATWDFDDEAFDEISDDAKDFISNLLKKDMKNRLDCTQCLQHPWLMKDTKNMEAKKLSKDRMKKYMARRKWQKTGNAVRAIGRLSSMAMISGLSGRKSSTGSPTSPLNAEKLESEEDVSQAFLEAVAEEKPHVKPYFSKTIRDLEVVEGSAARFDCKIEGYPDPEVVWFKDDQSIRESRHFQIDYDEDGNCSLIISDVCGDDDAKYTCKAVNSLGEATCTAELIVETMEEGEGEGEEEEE
smiles,measurement,setting,value
"C=CC(=O)Nc1ccc(OC)c(Nc2cc(-c3[nH]c(CC)nc3-c3cccc(NC(=O)c4cccc5c4NC(=O)c4ccccc4N5)c3)ccn2)c1 [Compound 4, N-(3-(5-(2-((5-Acrylamido-2-methoxyphenyl)amino)pyridin-4-yl)-2-ethyl-1H-imidazol-4-yl)phenyl)-11-oxo-10,11-dihydro-5H-dibenzo[b,e][1,4]diazepine-9-carboxamide]",remaining binding at 1 µM,FGFR3,94%
same,remaining binding at 1 µM,DYRK2,75%
same,remaining binding at 1 µM,MAP4K3,9.5%
same,remaining binding at 1 µM,[1],16%
same,remaining binding at 1 µM,STK36,30%
same,remaining binding at 1 µM,SGK3,90%
same,remaining binding at 1 µM,PIM3,100%
same,remaining binding at 1 µM,KIT(V559D + T670I),95%
same,remaining binding at 1 µM,PFCDPK1(P. falciparum),87%
same,remaining binding at 1 µM,PRKD2,62%
same,remaining binding at 1 µM,DRAK2,94%
same,remaining binding at 1 µM,CAMK4,99%
same,remaining binding at 1 µM,MYLK,84%
same,remaining binding at 1 µM,SRPK2,100%
same,remaining binding at 1 µM,CAMKK2,95%
same,remaining binding at 1 µM,ADCK3,100%
same,remaining binding at 1 µM,[2],80%
same,remaining binding at 1 µM,MEK2,100%
same,remaining binding at 1 µM,p38-alpha,46%
same,remaining binding at 1 µM,BIKE,100%
same,remaining binding at 1 µM,PAK6,93%
same,remaining binding at 1 µM,[3],4.7%
same,remaining binding at 1 µM,RIOK3,100%
same,remaining binding at 1 µM,EGFR(G719C),6.5%
same,remaining binding at 1 µM,ABL1-phosphorylated,80%
same,remaining binding at 1 µM,MYO3B,31%
same,remaining binding at 1 µM,TAK1,95%
same,remaining binding at 1 µM,MKK7,31%
same,remaining binding at 1 µM,HCK,14%
same,remaining binding at 1 µM,PRKCQ,18%
same,remaining binding at 1 µM,CAMKK1,85%
same,remaining binding at 1 µM,EGFR(E746-A750del),13%
same,remaining binding at 1 µM,PRKX,100%
same,remaining binding at 1 µM,[4],98%
same,remaining binding at 1 µM,[5],97%
same,remaining binding at 1 µM,[6],100%
